From patent publication US20210024542A1 (Torcept Therapeutics, Inc., priority 2018, published 2021)

What was measured:
[1] = system: SW684; assay: OncoPanel cell proliferation assay, SW684; format: cell-based, human
Protocol: (§1) Cells were seeded into 384-well plates and incubated in a humidified atmosphere of 5% CO2 at 37° C. Compounds were added the day following cell seeding. At the same time, a time zero untreated cell plate was generated. After a 3-day incubation period, cells were fixed and stained to allow fluorescence imaging of nuclei. Compounds (1 mM stock solutions) were serially diluted in half-log steps from the highest test concentration ([…]), and assayed over 10 concentrations with a maximum assay concentration of 0.1% DMSO. Automated fluorescence microscopy was carried out using a Molecular Devices ImageXpress Micro XL high-content imager, and images were collected with a 4× objective. 16-bit TIFF images were acquired and analyzed with MetaXpress 5.1.0.41 software.
(§2) Cell proliferation was measured by the fluorescence intensity of an incorporated nuclear dye. The output is referred to as the relative cell count, where the measured nuclear intensity is transformed to percent of control (POC) using the following formula: […]
(§3) Cellular response parameters were calculated using nonlinear regression to a sigmoidal single-site dose response model:
(§4) Where y is a response measured at concentration x, A and B are the lower and upper limits of the response, C is the concentration at the response midpoint (EC50), and D is the Hill Slope (Ref. 1).
(§5) GI50 is the concentration needed to reduce the observed growth by half (midway between the curve maximum and the time zero value). […] In rare instances, values <0 or >10 may be observed. […] Curve-fitting, calculations, and report generation was performed using a custom data reduction engine and MathIQ based software (AIM).

[2] = system: AsPC-1; assay: OncoPanel cell proliferation assay, AsPC-1; settings: for Cell Count Activity Area: AsPC-1, scale 0-10
Protocol: Cells were seeded into 384-well plates and incubated in a humidified atmosphere of 5% CO2 at 37° C. Compounds were added the day following cell seeding. At the same time, a time zero untreated cell plate was generated. After a 3-day incubation period, cells were fixed and stained to allow fluorescence imaging of nuclei. Compounds (1 mM stock solutions) were serially diluted in half-log steps from the highest test concentration (1 micromol), and assayed over 10 concentrations with a maximum assay concentration of 0.1% DMSO. Automated fluorescence microscopy was carried out using a Molecular Devices ImageXpress Micro XL high-content imager, and images were collected with a 4× objective. 16-bit TIFF images were acquired and analyzed with MetaXpress 5.1.0.41 software.

[3] = system: SW579; assay: OncoPanel cell proliferation assay, SW579; format: cell-based, human; settings: for Cell Count Activity Area: SW579, scale 0-10
Protocol: as §1, with “Cells were grown in RPMI 1640, 10% FBS, 2 mM L-alanyl-L-glutamine, 1 mM Na pyruvate, or a special medium. Cells” for “Cells”
as §2, §3, §4
(§6) EC50 is the test compound concentration at the curve inflection point or half the effective response (parameter C of the fitted curve solution). GI50 is the concentration needed to reduce the observed growth by half (midway between the curve maximum and the time zero value). “Cell Count Activity Area” is an estimate of the integrated area above the curve (Barretina, et al. The Cancer Cell Line Encyclopedia enables predictive modelling of anticancer drug sensitivity. Nature 483: 603-607). […] In rare instances, values <0 or >10 may be observed. […] Curve-fitting, calculations, and report generation was performed using a custom data reduction engine and MathIQ based software (AIM).

[4] = system: SNU-C2B; assay: OncoPanel cell proliferation assay, SNU-C2B; format: cell-based, human; settings: for Cell Count Activity Area: scale 0-10
Protocol: as §1, with “Cells were grown in RPMI 1640, 10% FBS, 2 mM L-alanyl-L-glutamine, 1 mM Na pyruvate, or a special medium. Cells” for “Cells”
as §2, §3, §4, §6

[5] = system: SCaBER; assay: OncoPanel cell proliferation assay, SCaBER; format: cell-based, human; settings: scale 0-10
Protocol: as §1, with “Cells were grown in RPMI 1640, 10% FBS, 2 mM L-alanyl-L-glutamine, 1 mM Na pyruvate, or a special medium. Cells” for “Cells”
as §2, §3, §4, §6

[6] = system: RL95-2; assay: OncoPanel cell proliferation assay, RL95-2; format: cell-based, human; settings: for Cell Count Activity Area: RL95-2, scale 0-10
Protocol: as §1, with “Cells were grown in RPMI 1640, 10% FBS, 2 mM L-alanyl-L-glutamine, 1 mM Na pyruvate, or a special medium. Cells” for “Cells”
as §2, §3, §4, §6

[7] = system: CML-T1; assay: OncoPanel cell proliferation assay, CML-T1; format: cell-based, human; settings: CML-T1, scale 0-10
Protocol: as §1, with “Cells were grown in RPMI 1640, 10% FBS, 2 mM L-alanyl-L-glutamine, 1 mM Na pyruvate, or a special medium. Cells” for “Cells”
as §2, §3, §4, §6

[8] = system: G-402; assay: OncoPanel cell proliferation assay, G-402; format: cell-based, human; settings: G-402, scale 0-10
Protocol: as §1, with “Cells were grown in RPMI 1640, 10% FBS, 2 mM L-alanyl-L-glutamine, 1 mM Na pyruvate, or a special medium. Cells” for “Cells”
as §2, §3, §4, §6

[9] = system: A431; assay: OncoPanel cell proliferation assay, A431; format: cell-based, human; settings: for Cell Count Activity Area: A431, scale 0-10
Protocol: as §1, with “Cells were grown in RPMI 1640, 10% FBS, 2 mM L-alanyl-L-glutamine, 1 mM Na pyruvate, or a special medium. Cells” for “Cells”
as §2, §3, §4, §6

[10] = system: DMS114; assay: OncoPanel cell proliferation assay, DMS114; format: cell-based, human
Protocol: as §1, §2, §3, §4, §5

[11] = system: T24; assay: OncoPanel cell proliferation assay, T24; format: cell-based, human; settings: for Cell Count Activity Area: T24, scale 0-10
Protocol: as §1, with “Cells were grown in RPMI 1640, 10% FBS, 2 mM L-alanyl-L-glutamine, 1 mM Na pyruvate, or a special medium. Cells” for “Cells”
as §2, §3, §4, §6

[12] = system: MES-SA; assay: OncoPanel cell proliferation assay, MES-SA; format: cell-based, human; settings: for Cell Count Activity Area: scale 0-10
Protocol: as §1, with “Cells were grown in RPMI 1640, 10% FBS, 2 mM L-alanyl-L-glutamine, 1 mM Na pyruvate, or a special medium. Cells” for “Cells”
as §2, §3, §4, §6

[13] = Homo sapiens, 72 h, 3-day incubation, read-out: Cell Count GI50

**Q.** How did the IC50 ([1]; Homo sapiens, 72 h, SW684, 3-day incubation, read-out: Cell Count IC50) turn out when `CO[C@H]1C[C@@H]2CC[C@@H](C)[C@@](O)(O2)C(=O)C(=O)N2CCCC[C@H]2C(=O)O[C@H]([C@H](C)C[C@@H]2CC[C@@H](O)[C@H](OC)C2)CC(=O)[C@H](C)/C=C(\C)[C@@H](O)[C@@H](OC)C(=O)[C@H](C)C[C@H](C)/C=C/C=C/C=C/1C` [Rapamycin, reference compound] was run?
**A.** > 1000 nM

**Q.** What about the “Cell Count Activity Area” value ([1]; SW684, scale 0-10) of the same molecule?
**A.** 2.81

**Q.** What about the “Cell Count Activity Area” value [2] of the same molecule?
**A.** 1.48

**Q.** And the EC50 ([2]; Homo sapiens, ASPC1, 72 h, read-out: Cell Count EC50)?
**A.** > 1000 nM

**Q.** What about the GI50 ([2]; Homo sapiens, ASPC1, 72 h, read-out: Cell Count GI50) of the same molecule?
**A.** > 1000 nM

**Q.** What about the IC50 ([2]; Homo sapiens, ASPC1, 72 h, read-out: Cell Count IC50) of the same molecule?
**A.** > 1000 nM

**Q.** And the IC50 ([3]; Homo sapiens, 72 h, SW579, 3-day incubation, read-out: Cell Count IC50)?
**A.** > 1000 nM

**Q.** What about the “Cell Count Activity Area” value [3] of the same molecule?
**A.** 4.77

**Q.** What about the EC50 ([4]; Homo sapiens, 72 h, 3-day incubation, read-out: Cell Count EC50) of the same molecule?
**A.** > 1000 nM

**Q.** What about the GI50 [4, 13] of the same molecule?
**A.** > 1000 nM

**Q.** And the IC50 ([4]; Homo sapiens, 72 h, 3-day incubation, read-out: Cell Count IC50)?
**A.** > 1000 nM

**Q.** What about the “Cell Count Activity Area” value [4] of the same molecule?
**A.** 1.99

**Q.** What about the “Cell Count Activity Area” value [5] of the same molecule?
**A.** 5.25

**Q.** And the GI50 ([6]; Homo sapiens, 72 h, RL95-2, 3-day incubation, read-out: Cell Count GI50)?
**A.** 0.13 nM

**Q.** And the IC50 ([6]; Homo sapiens, 72 h, RL95-2, 3-day incubation, read-out: Cell Count IC50)?
**A.** > 1000 nM

**Q.** And the “Cell Count Activity Area” value [6]?
**A.** 4.24

**Q.** And the “Cell Count Activity Area” value [7]?
**A.** 4.56

**Q.** And the “Cell Count Activity Area” value [8]?
**A.** 4.68

**Q.** What about the “Cell Count Activity Area” value [9] of the same molecule?
**A.** 0.28

**Q.** What about the EC50 ([9]; Homo sapiens, A-431, 72 h, A431, 3-day incubation, read-out: Cell Count EC50) of the same molecule?
**A.** > 1000 nM

**Q.** And the GI50 ([9]; Homo sapiens, A-431, 72 h, A431, 3-day incubation, read-out: Cell Count GI50)?
**A.** > 1000 nM

**Q.** And the IC50 ([9]; Homo sapiens, A-431, 72 h, A431, 3-day incubation, read-out: Cell Count IC50)?
**A.** > 1000 nM

**Q.** And the “Cell Count Activity Area” value ([10]; DMS114, scale 0-10)?
**A.** 4.14

**Q.** What about the IC50 ([10]; Homo sapiens, DMS-114, 72 h, DMS114, 3-day incubation, read-out: Cell Count IC50) of the same molecule?
**A.** > 1000 nM

**Q.** What about the IC50 ([11]; Homo sapiens, T-24, 72 h, T24, 3-day incubation, read-out: Cell Count IC50) of the same molecule?
**A.** 2.1 nM

**Q.** What about the “Cell Count Activity Area” value [11] of the same molecule?
**A.** 4.39

**Q.** And the “Cell Count Activity Area” value [12]?
**A.** 5.39

**Q.** What does the source list for `CN[C@@H]1C[C@H]2O[C@@](C)([C@@H]1OC)n1c3ccccc3c3c4c(c5c6ccccc6n2c5c31)C(=O)NC4` [Staurosporine, reference compound]?
**A.** GI50 ([1]; Homo sapiens, 72 h, SW684, 3-day incubation, read-out: Cell Count GI50): 0.95 nM; Cell Count Activity Area [2]: 3.28; EC50 ([3]; Homo sapiens, 72 h, SW579, 3-day incubation, read-out: Cell Count EC50): 0.52 nM; Cell Count Activity Area [3]: 6.09; Cell Count Activity Area [4]: 3.80; Cell Count Activity Area [5]: 6.03; Cell Count Activity Area [6]: 3.87; Cell Count Activity Area [7]: 4.13; Cell Count Activity Area [8]: 5.93; Cell Count Activity Area [9]: 5.64; EC50 ([10]; Homo sapiens, DMS-114, 72 h, DMS114, 3-day incubation, read-out: Cell Count EC50): 21 nM; Cell Count Activity Area [11]: 5.96; GI50 [12, 13]: 13 nM; Cell Count Activity Area [12]: 2.80
